This passage reports Kd results from PMC4686210, “Binding of Cyclic Di-AMP to the Staphylococcus aureus Sensor Kinase KdpD Occurs via the Universal Stress Protein Domain and Downregulates the Expression of the Kdp Potassium Transporter” (Journal of Bacteriology, 2015).

The target of the test is T1, KdpD (sensor histidine kinase KdpD, KdpD^Sa) (Staphylococcus aureus, UniProt Q2FWH7).
T1 construct: USP domain, amino acids E225 to F383, MBP fusion [MBP-KdpD(USP)]
The experiment in a line: DRaCALA with […]-c-di-AMP and purified MBP-KdpD(USP); cold nucleotide competition. Type of test: binding.

By Kd is commonly meant the constant that tells how readily two partners part at equilibrium. Lower therefore signals a tighter complex.

T1 sequence (Q2FWH7 225-383): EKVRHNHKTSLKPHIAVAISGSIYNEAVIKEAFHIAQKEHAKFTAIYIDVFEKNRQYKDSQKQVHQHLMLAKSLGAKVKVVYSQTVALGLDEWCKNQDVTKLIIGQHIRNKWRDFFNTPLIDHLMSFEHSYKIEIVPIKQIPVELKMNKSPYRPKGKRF

Consider `Nc1ncnc2c1ncn2[C@@H]1O[C@@H]2COP(=O)(O)O[C@H]3[C@@H](O)[C@H](n4cnc5c(N)ncnc54)O[C@@H]3COP(=O)(O)O[C@H]2[C@H]1O` [c-di-AMP], for which the affinity, expressed as Kd, was 2000 ± 180 nM.
